This is an account of results in ChEMBL document CHEMBL1201862, “PubChem BioAssay data set” (2004).

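How tested: cells in 96-well plates exposed to compound for 48 hours at five concentrations. The concentration for 50% growth inhibition is given as GI50.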 Calls of active or inactive are those of the source. No stated cut-off is given here; in the data, active = GI50 up to about 1.1 µM and inactive = higher.

Some test systems named below: ACHN; DMS-114; HCC 2998; HCT-116; LOX IMVI; MOLT-4; Malme-3M; NCI-H460; RPMI-8226; SF-268; SF-295; SF-539; SK-OV-3; SN12C; SR; SW-620; TK-10; UACC-62.
Common to all, as to assay: DTP human tumour cell line panel, 48 h

In the case of `O=C1Nc2ccc(Br)cc2/C1=N/Nc1ccc([N+](=O)[O-])cc1`, the GI50 is 18.5 µM (inactive) in the assay with ACHN; 18.5 µM (inactive) with DMS-114; 33.3 µM (inactive) in the assay on HCC 2998; 17.1 µM (inactive) in the assay on HCT-116; 21 µM (inactive) in the assay on LOX IMVI; 34.3 µM (inactive) in the assay with MOLT-4. Moreover, the GI50 in the assay on Malme-3M is 24.1 µM (inactive); with NCI-H460, 17.4 µM (inactive); with RPMI-8226, 16.4 µM (inactive); with SF-268, 17.5 µM (inactive); in the assay with SF-295, 11.6 µM (inactive); with SF-539, 14.2 µM (inactive). Further, the GI50 in the assay with SK-OV-3 is 19.5 µM (inactive); in the assay with SN12C, 19.3 µM (inactive); in the assay on SR it was 22.8 µM (inactive); in the assay with SW-620, 26.4 µM (inactive); in the assay with TK-10, 18.3 µM (inactive); with UACC-62, 27.9 µM (inactive).
`Cc1cccc(C(C)C)c1NC(=O)CC1C(=O)Nc2ccccc2S1(=O)=O` (configuration not stated): the GI50 in the assay on ACHN is 22.9 µM (inactive); in the assay with DMS-114 it was 13 µM (inactive); in the assay with HCC 2998 it was 22.9 µM (inactive); in the assay on HCT-116, 15.7 µM (inactive); with LOX IMVI, 22.2 µM (inactive); with MOLT-4, 0.408 µM (active). For the same molecule, the GI50 in the assay with Malme-3M was 16.3 µM (inactive); with NCI-H460 it was 12.8 µM (inactive); with RPMI-8226, 3.14 µM (inactive); in the assay with SF-268, 12.8 µM (inactive); with SF-295 it was 18.2 µM (inactive); with SF-539, 5.77 µM (inactive). For the same molecule, the GI50 was > 100 µM (inactive) in the assay with SK-OV-3; 23.2 µM (inactive) with SN12C; 1.48 µM (inactive) in the assay on SR; 7.03 µM (inactive) with SW-620; 29 µM (inactive) with TK-10; 11.8 µM (inactive) in the assay with UACC-62.
In the case of `COC(=O)CC(=O)C[P+](c1ccccc1)(c1ccccc1)c1ccccc1`, the GI50 in the assay with ACHN is > 218 µM (inactive); with DMS-114 it was > 218 µM (inactive); with HCC 2998 it was > 218 µM (inactive); in the assay with HCT-116 it was 60.7 µM (inactive); with LOX IMVI, > 218 µM (inactive); in the assay with MOLT-4 it was 74 µM (inactive). The GI50 in the assay with Malme-3M is 192 µM (inactive); in the assay with NCI-H460, 148 µM (inactive); in the assay with RPMI-8226, 63.5 µM (inactive); in the assay on SF-268 it was > 218 µM (inactive); in the assay with SF-295 it was 116 µM (inactive); in the assay with SF-539 it was 197 µM (inactive). The GI50 is > 218 µM (inactive) in the assay with SK-OV-3; 95.3 µM (inactive) with SN12C; 58.1 µM (inactive) with SR; 121 µM (inactive) in the assay with SW-620; > 218 µM (inactive) in the assay with TK-10; 178 µM (inactive) in the assay on UACC-62.
As to `O=C(Cc1ccccc1)C(c1ccccc1)S(=O)(=O)c1ccccc1` (configuration not stated), the GI50 in the assay with ACHN is > 100 µM (inactive); in the assay with DMS-114 it was 48.6 µM (inactive); in the assay on HCC 2998, > 100 µM (inactive); in the assay with HCT-116, 59.3 µM (inactive); with LOX IMVI, > 100 µM (inactive); with MOLT-4, > 100 µM (inactive). Moreover, the GI50 with Malme-3M, in the assay on NCI-H460, in the assay on RPMI-8226, with SF-268, in the assay with SF-295 and in the assay with SF-539 was > 100 µM (inactive) throughout. Further, the GI50 with SK-OV-3 was > 100 µM (inactive); with SN12C it was > 100 µM (inactive); in the assay with SR, 69.3 µM (inactive); in the assay on SW-620 it was > 100 µM (inactive); with TK-10, > 100 µM (inactive); in the assay on UACC-62, 75.2 µM (inactive).
